Data reported in patent US20250082630A1, “METHODS OF TREATING BRAIN TUMOURS AND NEUROBLASTOMAS” (AstraZeneca AB, priority 2021, published 2025).

Key:
PARP1 = PARP1 (Homo sapiens (Human), UniProt P09874); assay: PARP fluorescence anisotropy binding assay, PARP1
Experimental: Recombinant full length 6HIS tagged PARP1 protein was diluted to 6 nM with 50 mM Tris pH 8, 0.001% Triton X100, 10 mM MgCl2, 150 mM NaCl and incubated for four hours with an equivalent volume of 2 nM fluorescent probe diluted with 50 mM Tris pH 8, 0.001% Triton X100, 10 mM MgCl2, 150 mM NaCl. The final DMSO concentration of the probe was kept below 1% (v/v).
Fluorescence anisotropy of the probe when bound to the proteins was measured using a BMG Pherastar FSX® in the presence of test compounds or solvent control and the effect on anisotropy determined. % inhibition values for different test compound concentrations were calculated and fitted to a four parameter logistic plot in order to determine the IC50 value. Where necessary, the compound K, can be determined from the IC50 value using a Munson Rodbard equation defined in Anal Biochem. 1980 Sep.

PARP2 = PARP2 (Homo sapiens (Human), UniProt Q9UGN5); assay: PARP fluorescence anisotropy binding assay, PARP2
Experimental: Recombinant full length PARP2 protein was diluted to 6 nM with 50 mM Tris pH 8, 0.001% Triton X100, 10 mM MgCl2, 150 mM NaCl and incubated for four hours with an equivalent volume of 2 nM fluorescent probe diluted with 50 mM Tris pH 8, 0.001% Triton X100, 10 mM MgCl2, 150 mM NaCl. The final DMSO concentration of the probe was kept below 1% (v/v).
Fluorescence anisotropy of the probe when bound to the proteins was measured using a BMG Pherastar FSX® in the presence of test compounds or solvent control and the effect on anisotropy determined. % inhibition values for different test compound concentrations were calculated and fitted to a four parameter logistic plot in order to determine the IC50 value.

Chain of PARP1 (P09874 whole entry): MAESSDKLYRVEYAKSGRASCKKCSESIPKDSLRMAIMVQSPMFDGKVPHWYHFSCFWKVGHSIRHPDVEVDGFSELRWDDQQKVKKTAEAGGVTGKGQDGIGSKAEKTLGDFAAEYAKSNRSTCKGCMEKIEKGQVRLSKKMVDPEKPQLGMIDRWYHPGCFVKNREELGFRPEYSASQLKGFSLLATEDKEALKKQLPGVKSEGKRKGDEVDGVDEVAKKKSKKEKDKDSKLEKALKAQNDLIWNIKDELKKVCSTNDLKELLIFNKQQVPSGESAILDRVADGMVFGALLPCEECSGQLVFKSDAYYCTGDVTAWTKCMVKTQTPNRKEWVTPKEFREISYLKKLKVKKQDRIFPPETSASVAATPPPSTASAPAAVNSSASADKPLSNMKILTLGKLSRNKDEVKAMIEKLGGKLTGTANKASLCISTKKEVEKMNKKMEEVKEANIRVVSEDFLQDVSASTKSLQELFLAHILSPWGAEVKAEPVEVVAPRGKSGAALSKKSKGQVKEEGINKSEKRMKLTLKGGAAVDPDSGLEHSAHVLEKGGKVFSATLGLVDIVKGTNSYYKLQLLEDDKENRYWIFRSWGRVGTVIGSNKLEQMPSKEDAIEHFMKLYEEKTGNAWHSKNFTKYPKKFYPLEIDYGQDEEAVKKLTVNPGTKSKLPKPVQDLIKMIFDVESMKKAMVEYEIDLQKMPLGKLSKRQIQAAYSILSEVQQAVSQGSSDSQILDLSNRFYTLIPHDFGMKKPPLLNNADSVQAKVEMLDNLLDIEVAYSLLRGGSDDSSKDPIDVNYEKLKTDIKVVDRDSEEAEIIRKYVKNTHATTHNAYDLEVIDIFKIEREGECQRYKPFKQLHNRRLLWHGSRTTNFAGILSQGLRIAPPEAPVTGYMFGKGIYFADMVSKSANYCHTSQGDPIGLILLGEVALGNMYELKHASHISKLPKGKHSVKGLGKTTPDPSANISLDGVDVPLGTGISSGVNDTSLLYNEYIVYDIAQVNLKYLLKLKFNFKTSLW
Chain of PARP2 (Q9UGN5 whole entry): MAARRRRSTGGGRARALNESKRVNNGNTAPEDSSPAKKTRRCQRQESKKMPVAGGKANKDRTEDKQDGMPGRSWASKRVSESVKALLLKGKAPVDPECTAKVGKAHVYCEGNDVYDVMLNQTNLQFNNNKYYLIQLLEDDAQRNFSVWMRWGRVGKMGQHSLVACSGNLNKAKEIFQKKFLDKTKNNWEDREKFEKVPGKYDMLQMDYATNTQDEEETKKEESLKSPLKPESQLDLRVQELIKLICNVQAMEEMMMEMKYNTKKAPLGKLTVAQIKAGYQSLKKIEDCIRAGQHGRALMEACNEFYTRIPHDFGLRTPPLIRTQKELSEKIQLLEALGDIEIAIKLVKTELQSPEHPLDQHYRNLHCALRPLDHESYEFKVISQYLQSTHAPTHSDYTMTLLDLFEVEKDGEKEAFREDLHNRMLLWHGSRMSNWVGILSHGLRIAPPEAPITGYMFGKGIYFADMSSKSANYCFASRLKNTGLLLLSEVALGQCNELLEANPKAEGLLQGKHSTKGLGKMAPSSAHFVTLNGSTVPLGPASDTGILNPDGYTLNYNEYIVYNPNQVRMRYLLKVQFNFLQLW

IC50 (PARP1) [nM] | IC50 (PARP2) [nM] | SMILES
11 | 15000 | CNC(=O)c1ccc(N2CCN(Cc3ccc4nc(C)c(=O)[nH]c4c3C)CC2)cn1 [Example 2, 5-[4-[(2,5-dimethyl-3-oxo-4H-quinoxalin-6-yl)methyl]piperazin-1-yl]-N-methyl-pyridine-2-carboxamide]
5 | > 63000 | Cc1nc2ccc(CN3CCN(c4ccc(C(N)=O)nc4F)CC3)c(C)c2[nH]c1=O [Example 5, 5-[4-[(2,5-dimethyl-3-oxo-4H-quinoxalin-6-yl)methyl]piperazin-1-yl]-6-fluoro-pyridine-2-carboxamide]
4 | > 100000 | Cc1nc(C(N)=O)ccc1N1CCN(Cc2ccc3nc(C)c(=O)[nH]c3c2F)CC1 [Example 6, 5-[4-[(5-fluoro-2-methyl-3-oxo-4H-quinoxalin-6-yl)methyl]piperazin-1-yl]-6-methyl-pyridine-2-carboxamide]
6 | 58000 | Cc1nc(C(N)=O)ccc1N1CCN(Cc2ccc3nc(C)c(=O)[nH]c3c2C)CC1 [Example 7, 5-[4-[(2,5-dimethyl-3-oxo-4H-quinoxalin-6-yl)methyl]piperazin-1-yl]-6-methyl-pyridine-2-carboxamide]
4 |  | CCc1nc2ccc(CN3CCN(c4ccc(C(=O)NC)nc4Cl)CC3)c(Cl)c2[nH]c1=O [Example 8, 6-chloro-5-[4-[(5-chloro-2-ethyl-3-oxo-4H-quinoxalin-6-yl)methyl]piperazin-1-yl]-N-methyl-pyridine-2-carboxamide]
13 |  | CCc1nc2ccc(CN3CCN(c4ccc(C(=O)NC)nc4)CC3)c(Cl)c2[nH]c1=O [Example 10, 5-[4-[(5-chloro-2-ethyl-3-oxo-4H-quinoxalin-6-yl)methyl]piperazin-1-yl]-N-methyl-pyridine-2-carboxamide]
3 |  | CCc1nc2ccc(CN3CCN(c4ccc(C(=O)NC)nc4C)CC3)c(Cl)c2[nH]c1=O [Example 11, 5-[4-[(5-chloro-2-ethyl-3-oxo-4H-quinoxalin-6-yl)methyl]piperazin-1-yl]-N,6-dimethyl-pyridine-2-carboxamide]
10 |  | CNC(=O)c1ccc(N2CCN(Cc3ccc4nc(C)c(=O)[nH]c4c3Cl)CC2)cn1 [Example 16, 5-[4-[(5-chloro-2-methyl-3-oxo-4H-quinoxalin-6-yl)methyl]piperazin-1-yl]-N-methyl-pyridine-2-carboxamide]
6 |  | CNC(=O)c1ccc(N2CCN(Cc3ccc4nc(C)c(=O)[nH]c4c3Cl)CC2)c(F)n1 [Example 17, 5-[4-[(5-chloro-2-methyl-3-oxo-4H-quinoxalin-6-yl)methyl]piperazin-1-yl]-6-fluoro-N-methyl-pyridine-2-carboxamide]
6 | 87000 | Cc1nc2ccc(CN3CCN(c4ccc(C(N)=O)nc4F)CC3)c(F)c2[nH]c1=O [Example 22, 6-fluoro-5-[4-[(5-fluoro-2-methyl-3-oxo-4H-quinoxalin-6-yl)methyl]piperazin-1-yl]pyridine-2-carboxamide]
5 | > 100000 | CCc1nc2ccc(CN3CCN(c4ccc(C(N)=O)nc4)CC3)c(F)c2[nH]c1=O [Example 25, 5-[4-[(2-ethyl-5-fluoro-3-oxo-4H-quinoxalin-6-yl)methyl]piperazin-1-yl]pyridine-2-carboxamide]
5 | 88000 | CCc1nc2ccc(CN3CCN(c4ccc(C(N)=O)nc4C)CC3)c(F)c2[nH]c1=O [Example 26, 5-[4-[(2-ethyl-5-fluoro-3-oxo-4H-quinoxalin-6-yl)methyl]piperazin-1-yl]-6-methyl-pyridine-2-carboxamide]
167 | > 100000 | CNC(=O)c1ccc(N2CCN(Cc3ccc4ncc(=O)[nH]c4c3F)CC2)cn1 [Example 33, 5-[4-[(5-fluoro-3-oxo-4H-quinoxalin-6-yl)methyl]piperazin-1-yl]-N-methyl-pyridine-2-carboxamide]
30 | > 100000 | CNC(=O)c1ccc(N2CCN(Cc3ccc4ncc(=O)[nH]c4c3F)CC2)c(C)n1 [Example 35, 5-[4-[(5-fluoro-3-oxo-4H-quinoxalin-6-yl)methyl]piperazin-1-yl]-N,6-dimethyl-pyridine-2-carboxamide]
22 | > 100000 | CNC(=O)c1ccc(N2CCN(Cc3ccc4ncc(=O)[nH]c4c3F)CC2)c(F)n1 [Example 36, 6-fluoro-5-[4-[(5-fluoro-3-oxo-4H-quinoxalin-6-yl)methyl]piperazin-1-yl]-N-methyl-pyridine-2-carboxamide]
5 | > 88000 | CCc1nc2ccc(CN3CCN(c4ccc(C(=O)NC)nc4C)CC3)c(C)c2[nH]c1=O [Example 42, 5-[4-[(2-ethyl-5-methyl-3-oxo-4H-quinoxalin-6-yl)methyl]piperazin-1-yl]-N,6-dimethyl-pyridine-2-carboxamide]
5 | > 100000 | CCc1nc2ccc(CN3CCN(c4ccc(C(=O)NC)nc4F)CC3)c(C)c2[nH]c1=O [Example 43, 5-[4-[(2-ethyl-5-methyl-3-oxo-4H-quinoxalin-6-yl)methyl]piperazin-1-yl]-6-fluoro-N-methyl-pyridine-2-carboxamide]
128 | > 100000 | CCc1nc2ccc(CN3CCN(c4ccc(C(=O)NC)nc4)CC3)c(C)c2[nH]c1=O [Example 44, 5-[4-[(2-ethyl-5-methyl-3-oxo-4H-quinoxalin-6-yl)methyl]piperazin-1-yl]-N-methyl-pyridine-2-carboxamide]
10 | > 100000 | CCNC(=O)c1ccc(N2CCN(Cc3ccc4nc(C)c(=O)[nH]c4c3F)CC2)c(C)n1 [Example 46, N-ethyl-5-[4-[(5-fluoro-2-methyl-3-oxo-4H-quinoxalin-6-yl)methyl]piperazin-1-yl]-6-methyl-pyridine-2-carboxamide]
60 | 35000 | CNC(=O)c1ccc(N2CCN(Cc3ccc4nc(C(F)(F)F)c(=O)[nH]c4c3F)CC2)cn1 [Example 50, 5-[4-[[5-fluoro-3-oxo-2-(trifluoromethyl)-4H-quinoxalin-6-yl]methyl]piperazin-1-yl]-N-methyl-pyridine-2-carboxamide]
6 | 1200 | CNC(=O)c1ccc(N2CCN(Cc3ccc4nc(C(C)C)c(=O)[nH]c4c3F)CC2)c(F)n1 [Example 51, 6-fluoro-5-[4-[(5-fluoro-2-isopropyl-3-oxo-4H-quinoxalin-6-yl)methyl]piperazin-1-yl]-N-methyl-pyridine-2-carboxamide]
85 | 3800 | CNC(=O)c1ccc(N2CCN(Cc3ccc4nc(C(C)C)c(=O)[nH]c4c3F)CC2)c(C)n1 [Example 52, 5-[4-[(5-fluoro-2-isopropyl-3-oxo-4H-quinoxalin-6-yl)methyl]piperazin-1-yl]-N,6-dimethyl-pyridine-2-carboxamide]
26 | > 100000 | CNC(=O)c1ccc(N2CCN(Cc3ccc4nc(C(C)C)c(=O)[nH]c4c3F)CC2)cn1 [Example 53, 5-[4-[(5-fluoro-2-isopropyl-3-oxo-4H-quinoxalin-6-yl)methyl]piperazin-1-yl]-N-methyl-pyridine-2-carboxamide]
111 | > 100000 | CNC(=O)c1ccc(N2CCN(Cc3ccc4nc(C5CC5)c(=O)[nH]c4c3F)CC2)c(F)n1 [Example 54, 5-[4-[(2-cyclopropyl-5-fluoro-3-oxo-4H-quinoxalin-6-yl)methyl]piperazin-1-yl]-6-fluoro-N-methyl-pyridine-2-carboxamide]
